In ChEMBL document CHEMBL1135376, “Synthesis of an immunoconjugate of camptothecin” (Bioorg Med Chem Lett, 2002):

How the values were obtained:
[1] = Compound was evaluated for its stability and enzymatic cleavage of dipeptide linker at pH 7, 37 degree C.; 5-6 h; assay type: ADME
[2] = Compound was evaluated for its stability and enzymatic cleavage of dipeptide linker at pH5, 37 degree C.; assay type: ADME; conditions: pH 5
[3] = Compound was evaluated for its stability and enzymatic cleavage of dipeptide linker at pH5, 37 degree C.; 5-6 h; assay type: ADME; conditions: pH 5
L2987 = test: Compound was evaluated for antigen specific activity in vitro L2987 cell line; assay type: functional, cell-based; conditions: Homo sapiens

half-life [1] [h] | half-life [2] [min] | half-life [3] [h] | SMILES | IC50 (L2987) [µM]
6 | < 2 | 6 | CC[C@]1(OC(=O)OCc2ccc(NC(=O)[C@H](CCCCN)NC(=O)[C@H](Cc3ccccc3)NC(=O)CCCCCN3C(=O)CC(SCCO)C3=O)cc2)C(=O)OCc2c1cc1n(c2=O)Cc2cc3ccccc3nc2-1 (some centres undefined) | 
 |  |  | CC[C@@]1(O)C(=O)OCc2c1cc1n(c2=O)Cc2cc3ccccc3nc2-1 [CAMPTOTHECIN] | 0.4
